Source: patent publication US20030180927A1, “Yeast protein methyltransferase hsl7p” (priority 2003, published 2003)

B1: Hs17p: yeast protein methyltransferase, homologue of Janus kinase binding protein 1, expressed by HSL7 (protein, UniProt P38274 1-827, looked up)
Protein arginine …: MHSNVFVGVKPGFNHKQHSKKSRFLENVSSHSPELPSNYDYVLLPITTPRYKEIVGQVFKDFQRQSIQNWKPLQIPEPQLQDICIPPFNVKKLDNDDTPSYIGLLSSWLELESRDPNVRDLGLKVLLNECKYARFVGINKLILAPPRDLSNLQLYGQMIYRLLQNRIVFAAPALTISISLPLYEDSDPLATWELWNTVRKQCEYHPSLTISLALPRTRTPSYVLNRWLAEPVSCLLVSSSIFASNQYDYPVLHKFNQNLILKFQKVNGDSQILGNELCVILHGMEKYANNVKGGESAYLEYINYLLKKGDKVLNSNSNHQFLLQEDSRIMPPLKPHSDNLLNSTYLTFEKDLVKYDLYESAILEALQDLAPRASAKRPLVILVAGAGRGPLVDRTFKIISMLFMDSKVSIIAIEKNPQAYLYLQKRNFDCWDNRVKLIKEDMTKWQINEPSEKRIQIDLCISELLGSFGCNELSPECLWSIEKYHSHNDTIFIPRSYSSYIAPISSPLFYQKLSQTNRSLEAPWIVHRVPYCILSSRVNEVWRFEHPMAQKDTVQDEDDFTVEFSQSSLNEFKIKHRGEIHGFIGFFSANLYNNIFLSTLPNDSTVRLKFSEETLMNTRREENLIKKCDHTPNMTSWSPIIFPLKQPISFIDDSELSVLMSRIHSDTEQKVWYEWSLESFIYLMLSNYTSAVTAASMTIPRSIVTDDTKTLAHNRHYSATTNQKLDNQIDLDQDIENEEEQGFLSNLETGWQSVQDIHGLSETAKPDHLDSINKPMFDLKSTKALEPSNELPRHEDLEEDVPEVHVRVKTSVSTLHNVCGRAFSLPL
modifications: FLAG tag

Legend:
Hs17p = target: T1, Hs17p (Saccharomyces cerevisiae, UniProt P38274); assay: In vitro methylation of myelin basic protein by Hs17p, inhibition; type: biochemical; conditions: [3H]AdoMet methyl donor, 30° C., 30 minutes, FIG. 2C
T1 construct: made in house; host or cells: S. cerevisiae hsl7-delta strain SPY103 (pGALFLAGHSL7, GAL1 promoter); anti-Flag immunoprecipitate
T1 sequence (P38274 1-827): B1 Protein arginine …
Description: (§1) In Vitro Methylation. Immunoprecipitated Flag-Hs17p was used to methylate histones and myelin basic protein with minor modifications of the method previously described. Each reaction contained 10 ig of substrate proteins (histones, MBP and cytochrome c). [^3H]AdoMet was added to a final concentration of 55 iCi/ml. The reaction contained 150 mM NaCl, 50 mM Tris.HCl (pH 8.0), 1% NP-40, 0.8 mM PMSF, 3 μg/ml antipain, 10 ig/ml benzamidine (10^4 kallikrein-inactivating units/ml) plus 1 μg/ml each of leupeptin, chymostatin and pepstatin. The 50 μl reactions were incubated at 30° C. for 30 minutes.
(§2) FIG. 2 illustrates the UV crosslinking of [^3H]AdoMet to Hs17p. […] After UV crosslinking, the 7.5% gel was dried and exposed to Biomax MR film for 15 days at −70° C. FIG. 2B show the in vitro methylation of protein substrates by Hs17p. Methylation reactions were done as described in “Experimental Procedures.” Each lane contained 10 μg at substrate protein. The position of the labeled bands coincided exactly with the location of the substrate proteins or the Coomassie blue-stained gel (not shown). The dried 15% gel was exposed to Biomax MR film for 21 days at −70° C. […] Protein sizes were calculated by the migration of broad range protein standards (BioRad).

JBP1 = JBP1 (Homo sapiens, UniProt O14744); assay: In vitro methylation of myelin basic protein by JBP1, inhibition; type: biochemical; conditions: [3H]AdoMet methyl donor, 30° C., 30 minutes, FIG. 2C
Description: as §1, §2

[1] = tested on: calf histones, bovine myelin basic protein and bovine cytochrome c; assay: In vitro methylation of protein substrates; type: biochemical; conditions: substrates H2A, H4 and myelin basic protein, 10 μg, FIG. 2B
Description: as §1, §2

[2] = UV crosslinking of [3H]AdoMet; type: binding; conditions: immunoprecipitated protein, FIG. 2A
Description: UV Crosslinking. Crosslinking of [^3H]AdoMet to Hs17p and JBP1 was performed as described.
FIG. 2 illustrates the UV crosslinking of [^3H]AdoMet to Hs17p. […] After UV crosslinking, the 7.5% gel was dried and exposed to Biomax MR film for 15 days at −70° C. FIG. 2B show the in vitro methylation of protein substrates by Hs17p. Methylation reactions were done as described in “Experimental Procedures.” Each lane contained 10 μg at substrate protein. The position of the labeled bands coincided exactly with the location of the substrate proteins or the Coomassie blue-stained gel (not shown). The dried 15% gel was exposed to Biomax MR film for 21 days at −70° C. […] Protein methylation reactions were conducted as described in “Experimental Procedures,” except that homocysteine was added to the other reaction components on ice. The reactions were then incubated at 30° C. for 30 minutes. The 15% gel was exposed to Biomax MR film for 14 days at −70° C. Protein sizes were calculated by the migration of broad range protein standards (BioRad).

JBP1, sequence (O14744 whole entry): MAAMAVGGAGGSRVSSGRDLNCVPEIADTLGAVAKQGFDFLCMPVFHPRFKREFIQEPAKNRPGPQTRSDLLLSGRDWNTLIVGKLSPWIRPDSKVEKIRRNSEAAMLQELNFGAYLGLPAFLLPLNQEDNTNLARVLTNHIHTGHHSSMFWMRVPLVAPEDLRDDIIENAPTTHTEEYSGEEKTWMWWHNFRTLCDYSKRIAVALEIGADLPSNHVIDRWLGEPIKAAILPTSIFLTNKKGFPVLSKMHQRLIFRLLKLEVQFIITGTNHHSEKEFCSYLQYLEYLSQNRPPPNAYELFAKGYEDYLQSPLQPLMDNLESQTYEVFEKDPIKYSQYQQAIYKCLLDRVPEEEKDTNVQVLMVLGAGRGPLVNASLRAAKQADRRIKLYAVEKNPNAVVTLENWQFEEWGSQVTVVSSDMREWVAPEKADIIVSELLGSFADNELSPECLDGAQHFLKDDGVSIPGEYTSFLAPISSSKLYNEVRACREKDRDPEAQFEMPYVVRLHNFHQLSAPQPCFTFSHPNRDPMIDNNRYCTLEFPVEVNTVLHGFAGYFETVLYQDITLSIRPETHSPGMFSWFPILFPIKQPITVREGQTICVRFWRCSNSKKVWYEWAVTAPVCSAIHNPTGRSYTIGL
JBP1, sequence (Q9BQA1 whole entry partner): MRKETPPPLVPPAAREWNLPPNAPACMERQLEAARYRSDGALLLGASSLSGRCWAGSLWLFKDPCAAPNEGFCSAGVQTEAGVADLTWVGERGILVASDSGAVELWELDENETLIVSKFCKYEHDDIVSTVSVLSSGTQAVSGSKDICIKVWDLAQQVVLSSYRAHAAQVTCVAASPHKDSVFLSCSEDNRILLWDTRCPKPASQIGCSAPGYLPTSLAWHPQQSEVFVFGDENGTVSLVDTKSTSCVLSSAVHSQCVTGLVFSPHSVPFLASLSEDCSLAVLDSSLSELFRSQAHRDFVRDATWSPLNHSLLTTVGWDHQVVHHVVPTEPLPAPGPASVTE

Molecule | inhibition of myelin basic protein in vitro methylation by Hs17p (Hs17p) | inhibition of myelin basic protein in vitro methylation by JBP1 (JBP1) | in vitro methylation of substrate protein [1] | UV crosslinking / binding of [3H]AdoMet [2]
N[C@@H](CCS)C(=O)O [homocysteine] | blocks | blocks | – | –
B1 | – | – | methylated | binds AdoMet
